From patent US4558059A, “2-Substituted-phenylthiazole derivatives” (priority 1980, dated 1985)
Like-named read-outs stand apart in the source and are kept apart here.

Assays:
[1] = tested on: Peptic ulcer due to acetic acid; test: Effect on peptic ulcer due to acetic acid (duodenal); type: in vivo, male rats; settings: for Ulcer coefficient: orally 3 times a day for 10 days from third day; for inhibition in vivo at 100 mg/kg: Rattus norvegicus, po, 240 h, read-out: Rate of suppression of ulcer
Experimental: To the control group, only the aqueous physiological saline solution was administered. After the administration was over, the rats were sacrificed with ether, and their duodenum was removed to observe under a microscope for anatomy. The length and width of the thus-formed ulcer were measured and their product (expressed with mm^2) was recorded as the ulcer coefficient.

[2] = tested on: Peptic ulcer due to pyloric ligation; test: Effect on peptic ulcer due to pyloric ligation; type: in vivo, male rats; settings: intraperitoneal, rats; for Ulcer coefficient: 100 mg/kg, just after ligation, 15 hours; for inhibition in vivo at 100 mg/kg: Rattus norvegicus, ip, 15 h, control ulcer coefficient 42.0 mm^2, read-out: Rate of suppression of ulcer
Experimental: Just after subjecting to ligation, each of the present compound suspended in an aqueous physiological saline solution was intraperitoneally administered to each rat, the control being injected with an aqueous physiological saline solution. Then, after 15 hours of fasting without taking water, the rats were sacrificed with ether and their stomachs were removed to examine under a microscope for anatomy. The length and width of the thus-formed ulcer in the stomach were determined and expressed by the product (mm^2), and the total sum of the products was represented as the ulcer coefficient.

[3] = Acute toxicity test, oral; settings: mouse, in vivo, p.o., female ICR-mice, mortality for a week, Litchfield-Wilcoxon
Experimental: Ten animals per group were kept in a transparent polycage at room temperature of 23°±1° C., and RH of 60 to 70%.
After minutely pulverizing each one of the present compounds, the pulverized compound was suspended in an aqueous 5% sodium carboxymethylcellulose solution containing 20% of Tween-80. The aqueous suspension was forcibly orally administered by a metal stomach tube, the dose rate having been adjusted by changing the concentration of the present compound in the aqueous suspension.

peptic ulcer = settings: cited from earlier work
[4] = 100 mg/kg, orally 3 times a day for 10 days, rats, control ulcer coefficient 9.0 mm^2

Row | SMILES | Ulcer coefficient ([1]; 100 mg/kg, rats) | inhibition in vivo at 100 mg/kg [1, 4] | Ulcer coefficient [2] | inhibition in vivo at 100 mg/kg [2] | LD50 at 168 h [3] | inhibition in vivo at 100 mg/kg [1] | Effectiveness / curative effect ([1]; in words, rats) | Accelerating effect on the ulcer-curing (peptic ulcer; background statement) | Side effects (peptic ulcer; in vivo)
1 | CNC(=O)c1sc(-c2cc(OC)c(OC)c(OC)c2)nc1C [Compound 1, 2-(3,4,5-trimethoxyphenyl)-4-methylthiazole-5-methylcarboxamide] | 3.1 mm^2 | 65.6% | 14.7 mm^2 | 65% | – | – | – | – | –
2 | CCCNC(=O)c1sc(-c2cc(OC)c(OC)c(OC)c2)nc1C [Compound 2, 2-(3,4,5-trimethoxyphenyl)-4-methylthiazole-5-n-propylcarboxamide] | 2.7 mm^2 | 70% | 6.3 mm^2 | 85% | 5600 mg/kg | – | – | – | –
3 | COc1ccc(-c2nc(C)c(C(N)=O)s2)cc1OC [Compound 3, 2-(3,4-dimethoxyphenyl)-4-methylthiazole-5-carboxamide] | 1.3 mm^2 | – | 0.8 mm^2 | 98.1% | – | 85.6% | – | – | –
4 | CNC(=O)c1sc(-c2ccc(OC)c(OC)c2)nc1C [Compound 4, 2-(3,4-dimethoxyphenyl)-4-methylthiazole-5-methylcarboxamide] | 1.8 mm^2 | 80% | 11.0 mm^2 | 73.8% | – | – | – | – | –
5 | CCCNC(=O)c1sc(-c2ccc(OC)c(OC)c2)nc1C [Compound 5, 2-(3,4-dimethoxyphenyl)-4-methylthiazole-5-n-propylcarboxamide] | 2.9 mm^2 | 67.8% | 8.4 mm^2 | 80% | – | – | – | – | –
6 | COc1ccccc1-c1nc(C)c(C(N)=O)s1 [Compound 6, 2-(2-methoxyphenyl)-4-methylthiazole-5-carboxamide] | 2.1 mm^2 | 76.7% | 1.2 mm^2 | 97.1% | – | – | – | – | –
7 | CNC(=O)c1sc(-c2ccccc2OC)nc1C [Compound 7, 2-(2-methoxyphenyl)-4-methylthiazole-5-methylcarboxamide] | 1.7 mm^2 | 81.1% | 8.6 mm^2 | 79.5% | – | – | – | – | –
8 | CCCNC(=O)c1sc(-c2ccccc2OC)nc1C [Compound 8, 2-(2-methoxyphenyl)-4-methylthiazole-5-n-propylcarboxamide] | 3.2 mm^2 | 64.4% | 9.0 mm^2 | 78.6% | – | – | – | – | –
9 | COc1ccc(-c2nc(C)c(C(N)=O)s2)cc1 [Compound 9, 2-(4-methoxyphenyl)-4-methylthiazole-5-carboxyamide] | 2.0 mm^2 | 77.8% | 0.9 mm^2 | 97.9% | – | – | – | – | –
10 | CNC(=O)c1sc(-c2ccc(OC)cc2)nc1C [Compound 10, 2-(4-methoxyphenyl)-4-methylthiazole-5-methylcarboxamide] | 3.1 mm^2 | 65.6% | 6.4 mm^2 | 84.8% | – | – | – | – | –
11 | CCCNC(=O)c1sc(-c2ccc(OC)cc2)nc1C [Compound 11, 2-(4-methoxyphenyl)-4-methylthiazole-5-n-propylcarboxamide] | 2.5 mm^2 | 72.2% | 8.5 mm^2 | 79.8% | – | – | – | – | –
12 | CC(C)=CCCC(C)=CCCC(C)=CCCC(=O)OCC=C(C)CCC=C(C)C [Gefarnate, 3,7dimethyl-2,6-octadienyl 5,9,13trimethyl-4,8,12-tetradecatrienoate, reference compound] | 7.2 mm^2 | 20% | 36.9 mm^2 | 12.1% | – | – | only a slight effectiveness is recognized | – | –
13 | CC1(C)[C@@H](OC(=O)CCC(=O)O)CC[C@]2(C)[C@H]3C(=O)C=C4[C@@H]5C[C@@](C)(C(=O)O)CC[C@]5(C)CC[C@@]4(C)[C@]3(C)CC[C@@H]12 [carbenoxolone] | – | – | – | – | – | – | – | excellent accelerating effect on the ulcer-curing | aldosterone-like side effects to cause hypertension and weakening of muscular function
